In patent US4616025A, “Thiazolidine derivatives, process for the preparation and pharmaceutical compositions thereof” (Richter Gedeon Vegyeszeti Gyar RT, priority 1983, dated 1986):

Assays:
[1] = tested on: aspirin-induced gastric ulcers; test: Aspirin-induced stomach ulcer; assay type: in vivo, rat (female H-Wistar); conditions: Aspirin (control) 100 mg/kg p.o., n=20
Description: It is known that the non-steroidal antiinflammatory agents induce gastointestinal ulceration to certain extent (Drugs and Peptic Ulcer, Ed. Pfeiffer, CRC Press, New York 1982). To test anti-ulcer compounds the so-called Aspirin-induced ulcer model is widely used. Female H-Wistar rats weighing 120-150 g each were fasted for 24 hours. Water was allowed ad libitum. The stomach ulcer was induced by oral administration of 100 mg/kg Aspirin (in Tween 80 suspension). The test drug was given simultaneously with the administration of Aspirin, orally. The animals were killed by an overdose of ether, 4 hours after treatment. The stomach was excised and cut along the large curvature. The contents were slightly washed and the haemorrhagic lesions in the glandular surface were counted. When evaluating the test results, the number of ulcers per stomach or the ulcer-free animals were determined.

[2] = tested on: intestinal ulceration induced by indomethacin; conditions: literature; cited from earlier work
[3] = tested on: indomethacin-induced non-fatal intestinal ulceration; test: Indomethacin-induced (7.5 mg/kg p.o.) non-fatal intestinal ulceration, post-treatment, inflation technique; assay type: in vivo, rat (H-Wistar)
Description: (§1) To evaluate the development of intestinal ulcers the so-called inflation technique by Ezer and Szporny (J. Pharm. Pharmacol. 27, 866 (1975)) was employed. By this method the progress of ulceration can be monitored quantitatively. The tensile strength of the intestinal wall expressed in mmHg weakens gradually parallel with the progress of ulceration.
(b) Indomethacin-induced non-fatal ulceration
Non-fasted H-Wistar rats weighing 120 to 150 g each were administered 7.5 mg/kg indomethacin orally, to induce non-fatal intestinal ulceration. 4, 24 and 48 hours, respectively, after the indomethacin treatment the animals were treated with the test material orally. The animals were killed 24 hours after the last treatment and 72 hours after the ulcer-induction performed with indomethacin, respectively. Ulceration was evaluated by the inflation technique.

[4] = tested on: indomethacin-induced intestinal ulceration; test: Indomethacin-induced fatal intestinal ulceration (15 mg/kg p.o.), inflation technique; assay type: in vivo, rat (female H-Wistar)
Description: Indomethacin-induced intestinal ulceration
Of the non-steroidal antiinflammatory agents indomethacin has not only a gastric-ulcer inducing side-effect but may also cause serious intestinal ulceration. Depending on the dose, the intestinal ulceration may be fatal, peritonitis due to intestinal perforations kills the animals.
(a) Indomethacin-induced fatal intestinal ulceration
Non-fasted, female H-Winstar rats, weighing 120-150 g each were treated orally with a 15 mg/kg dose of indomethacin (in Tween 80 suspension). […] Under these conditions it requires about 48 to 72 hours to detect intenstinal ulceration.
as §1

[5] = tested on: formation of ulcers; conditions: cited from earlier work
[6] = indomethacin 15 mg/kg p.o. alone, n=16
[7] = indomethacin 15 + 25 mg/kg p.o.
[8] = indomethacin 15 + 50 mg/kg p.o.

SMILES: CC(=O)Oc1ccccc1C(=O)O [Aspirin, reference compound]
- Number of ulcers/stomach [1]: 15.7 ± 3.0
- Ulcer-free animals [1]: 0%

SMILES: C[N+]1(C)[C@@H]2CC[C@H]1CC(OC(=O)C1c3ccccc3Oc3ccccc31)C2.[Br-] (stereo partly drawn) [Gastrixon]
- Indomethacin-induced intestinal ulceration, in words [2]: cannot prevent indomethacin-induced intestinal ulceration

SMILES: COc1ccc2c(c1)c(CC(=O)O)c(C)n2C(=O)c1ccc(Cl)cc1 [Indomethacin, reference compound]
- T.s. of intestinal wall 72 hours after indomethacin treatment ([3]; indomethacin 7.5 mg/kg p.o. alone, n=32, group B): 185 ± 11 mm Hg
- Intestinal wall resistency in % of normal [4, 6]: 20 % of normal
- T.s. of intestinal wall 72 hours after treatment [4, 6]: 46 ± 12 mm Hg

SMILES: O=C(O)c1ccccc1O [Na--salicylate, reference compound]
- ED100 ([4]; Rattus norvegicus, po): 50 mg/kg
- Intestinal wall resistency in % of normal [4, 7]: 57 % of normal
- T.s. of intestinal wall 72 hours after treatment [4, 7]: 132 ± 17 mm Hg
- Intestinal wall resistency in % of normal [4, 8]: 100 % of normal
- T.s. of intestinal wall 72 hours after treatment [4, 8]: 231 ± 5 mm Hg

SMILES: CC(C)[N+](C)(CCOC(=O)C1c2ccccc2Oc2ccccc21)C(C)C [Propanthelin]
- Indomethacin-induced intestinal ulceration, in words [2]: cannot prevent indomethacin-induced intestinal ulceration

SMILES: CN1CCN(CC(=O)N2c3ccccc3C(=O)Nc3cccnc32)CC1 [pirenzepine, 5,11-dihydro-11-[(4-methyl-1-piperazinyl)-acetyl]-6H-pyrido[2,3-b][1,4] benzodiazepine-6-one]
- Inhibition of the formation of ulcers, in words ([5]; compared to atropine): inhibits the formation of ulcers to the same extent as atropine
- Other anticholinergic effects (e.g. inhibition of peristalsis, accommodation disturbances of eye, inhibition of salivation) ([5]; in vivo): devoid of other anticholenergic effects

SMILES: CNC(=C[N+](=O)[O-])NCCSCc1ccc(CN(C)C)o1 [ranitidine]
- Non-fatal intestinal ulceration post-treatment, in words ([3]; post-treatment 4, 24 and 48 hours after indomethacin 7.5 mg/kg p.o.): ineffective
